Active and inactive are the calls of the source. No cut-off for these calls is given here.
Columns and labels:
MDA-MB-231 [1] = assay: Induction of apoptosis in human MDA-MB-231 cells assessed as increase in caspase-8 cleavage at 10 to 40 uM measured after 24 hrs by Western blot analysis; type: functional, cell-based; conditions: dose 10-40 µM
[2] = Effect on KLHDC7B gene expression in human MDA-MB-231 cells by Trizol reagent based RNA sequencing analysis relative to control; type: functional
MDA-MB-231 [3] = assay: Induction of apoptosis in human MDA-MB-231 cells assessed as increase in caspase-3 cleavage at 10 to 40 uM measured after 24 hrs by Western blot analysis; type: functional, cell-based; conditions: dose 10-40 µM
MDA-MB-231 [4] = assay: Induction of apoptosis in human MDA-MB-231 cells assessed as viable cells at 20 uM measured after 24 hrs by Annexin V-FITC/propidium iodide staining based flow cytometry (reference value: 98.46%); type: functional; conditions: read-out: Activity
MDA-MB-231 [5] = assay: Induction of apoptosis in human MDA-MB-231 cells assessed as early apoptotic cells at 40 uM measured after 24 hrs by Annexin V-FITC/propidium iodide staining based flow cytometry (reference value: 0.81%); type: functional
MDA-MB-231 [6] = assay: Upregulation of XBP-1s expression in human MDA-MB-231 cells at 10 to 40 uM measured after 24 hrs by Western blot analysis; type: functional, cell-based; conditions: dose 10-40 µM
MDA-MB-231 [7] = assay: Inhibition of PI3K/AKT/mTOR signaling in human MDA-MB-231 cells assessed as reduction in AKT phosphorylation at 10 to 40 uM after 24 hrs by Western blot analysis; type: cell-based; conditions: dose 10-40 µM
MDA-MB-231 [8] = assay: Induction of apoptosis in human MDA-MB-231 cells assessed as viable cells at 10 uM measured after 24 hrs by Annexin V-FITC/propidium iodide staining based flow cytometry (reference value: 98.46%); type: functional; conditions: read-out: Activity
[9] = Effect on KLF15 gene expression in human MDA-MB-231 cells by Trizol reagent based RNA sequencing analysis relative to control; type: functional
[10] = Effect on TCP10L gene expression in human MDA-MB-231 cells by Trizol reagent based RNA sequencing analysis relative to control; type: functional
MDA-MB-231 [11] = assay: Induction of apoptosis in human MDA-MB-231 cells assessed as late apoptotic cells at 20 uM measured after 24 hrs by Annexin V-FITC/propidium iodide staining based flow cytometry (reference value: 0.57%); type: functional
[12] = target: T1, Serine/threonine-protein kinase PAK 1 (Homo sapiens, UniProt Q13153); assay: Inhibition of PAK1 phosphorylation at Ser199 residues in human MDA-MB-231 cells at 10 to 40 uM measured after 24 hrs by Western blot analysis; type: cell-based; conditions: dose 10-40 µM
T1 sequence (Q13153 whole entry): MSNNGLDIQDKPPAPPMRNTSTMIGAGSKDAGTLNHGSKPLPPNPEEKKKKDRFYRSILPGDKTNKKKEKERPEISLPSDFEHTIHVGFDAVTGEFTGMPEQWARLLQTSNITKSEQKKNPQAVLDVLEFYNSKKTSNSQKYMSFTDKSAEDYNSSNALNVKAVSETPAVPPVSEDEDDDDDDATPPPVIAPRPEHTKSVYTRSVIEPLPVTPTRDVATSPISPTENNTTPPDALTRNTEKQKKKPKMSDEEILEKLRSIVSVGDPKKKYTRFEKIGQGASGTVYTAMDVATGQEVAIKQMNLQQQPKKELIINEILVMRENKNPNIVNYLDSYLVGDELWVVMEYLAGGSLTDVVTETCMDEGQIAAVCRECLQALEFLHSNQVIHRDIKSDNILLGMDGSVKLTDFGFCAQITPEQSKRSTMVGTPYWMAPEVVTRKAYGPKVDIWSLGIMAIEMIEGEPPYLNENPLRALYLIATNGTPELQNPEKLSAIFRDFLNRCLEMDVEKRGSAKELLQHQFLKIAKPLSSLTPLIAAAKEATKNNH

MDA-MB-231 [13] = assay: Induction of apoptosis in human MDA-MB-231 cells assessed as upregulation of Bax expression at 10 to 40 uM measured after 24 hrs by Western blot analysis; type: functional, cell-based; conditions: dose 10-40 µM
MDA-MB-231 [14] = assay: Induction of apoptosis in human MDA-MB-231 cells assessed as increase in early apoptosis measured after 24 hrs by Annexin V-FITC/propidium iodide staining based flow cytometry; type: functional, cell-based
MDA-MB-231 [15] = assay: Upregulation of ATF4 expression in human MDA-MB-231 cells at 10 to 40 uM measured after 24 hrs by Western blot analysis; type: functional, cell-based; conditions: dose 10-40 µM
[16] = Effect on ASNS gene expression in human MDA-MB-231 cells by Trizol reagent based RNA sequencing analysis relative to control; type: functional
[17] = Effect on GDF15 gene expression in human MDA-MB-231 cells by Trizol reagent based RNA sequencing analysis relative to control; type: functional
[18] = target: Mitogen-activated protein kinase 8/9 (Homo sapiens) (UniProt P45983+P45984); assay: Inhibition of JNK1/2 in human MDA-MB-231 cells assessed as reduction in SAPK/JNK phosphorylation at […] residues at 10 to 40 uM after 24 hrs by Western blot analysis; type: cell-based; conditions: dose 10-40 µM
Mitogen-activated protein kinase 8/9 (Homo sapiens), sequence (P45983 whole entry, looked up): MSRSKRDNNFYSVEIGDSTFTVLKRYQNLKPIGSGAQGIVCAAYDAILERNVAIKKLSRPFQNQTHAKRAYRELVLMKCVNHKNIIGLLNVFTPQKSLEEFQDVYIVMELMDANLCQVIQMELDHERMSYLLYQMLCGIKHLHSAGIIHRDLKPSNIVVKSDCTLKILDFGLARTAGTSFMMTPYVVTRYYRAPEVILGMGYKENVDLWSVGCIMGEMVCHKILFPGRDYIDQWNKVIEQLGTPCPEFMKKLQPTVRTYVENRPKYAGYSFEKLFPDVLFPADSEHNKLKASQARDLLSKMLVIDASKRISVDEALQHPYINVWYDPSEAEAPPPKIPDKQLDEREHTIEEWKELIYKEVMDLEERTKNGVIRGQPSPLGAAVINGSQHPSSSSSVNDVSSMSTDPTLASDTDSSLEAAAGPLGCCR
Mitogen-activated protein kinase 8/9 (Homo sapiens), sequence (P45984 whole entry, looked up): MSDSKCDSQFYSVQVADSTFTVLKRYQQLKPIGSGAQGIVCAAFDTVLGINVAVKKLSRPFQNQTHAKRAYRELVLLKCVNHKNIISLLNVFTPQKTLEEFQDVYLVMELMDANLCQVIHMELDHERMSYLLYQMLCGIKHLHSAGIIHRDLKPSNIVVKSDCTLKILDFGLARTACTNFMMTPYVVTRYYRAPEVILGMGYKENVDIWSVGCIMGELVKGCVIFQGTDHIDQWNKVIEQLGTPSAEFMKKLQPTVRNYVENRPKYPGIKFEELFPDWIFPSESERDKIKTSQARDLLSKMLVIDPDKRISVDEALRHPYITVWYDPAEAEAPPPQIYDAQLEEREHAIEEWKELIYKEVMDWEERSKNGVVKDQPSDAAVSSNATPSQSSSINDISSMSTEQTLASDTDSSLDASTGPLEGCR

MDA-MB-231 [19] = assay: Induction of apoptosis in human MDA-MB-231 cells assessed as early apoptotic cells at 20 uM measured after 24 hrs by Annexin V-FITC/propidium iodide staining based flow cytometry (reference value: 0.81%); type: functional
MDA-MB-231 [20] = assay: Induction of apoptosis in human MDA-MB-231 cells assessed as early apoptotic cells at 10 uM measured after 24 hrs by Annexin V-FITC/propidium iodide staining based flow cytometry (reference value: 0.81%); type: functional
MDA-MB-231 [21] = assay: Down regulation of JNK expression in human MDA-MB-231 cells at 20 uM measured after 24 hrs by immunofluorescence assay; type: functional, cell-based
MDA-MB-231 [22] = assay: Upregulation of PERK expression in human MDA-MB-231 cells at 10 to 40 uM measured after 24 hrs by Western blot analysis; type: functional, cell-based; conditions: dose 10-40 µM
[23] = Effect on CXCL2 gene expression in human MDA-MB-231 cells by Trizol reagent based RNA sequencing analysis relative to control; type: functional
[24] = Effect on G0S2 gene expression in human MDA-MB-231 cells by Trizol reagent based RNA sequencing analysis relative to control; type: functional
[25] = Effect on TRIB3 gene expression in human MDA-MB-231 cells by Trizol reagent based RNA sequencing analysis relative to control; type: functional
[26] = target: T1, Serine/threonine-protein kinase PAK 1; assay: Inhibition of PAK1 in human MDA-MB-231 cells assessed as reduction in c-Raf phosphorylation at Ser259 residues at 10 to 40 uM measured after 24 hrs by Western blot analysis; type: cell-based; conditions: dose 10-40 µM
[27] = Effect on GRID1 gene expression in human MDA-MB-231 cells by Trizol reagent based RNA sequencing analysis relative to control; type: functional
[28] = Effect on CTGF gene expression in human MDA-MB-231 cells by Trizol reagent based RNA sequencing analysis relative to control; type: functional
MDA-MB-231 [29] = assay: Induction of apoptosis in human MDA-MB-231 cells assessed as necrotic cells at 10 uM measured after 24 hrs by Annexin V-FITC/propidium iodide staining based flow cytometry (reference value: 0.16%); type: functional
[30] = Effect on EGR1 gene expression in human MDA-MB-231 cells by Trizol reagent based RNA sequencing analysis relative to control; type: functional
MDA-MB-231 [31] = assay: Up regulation of E-cadherin expression in human MDA-MB-231 cells at 10 to 40 uM measured after 24 hrs by Western blot analysis; type: functional, cell-based; conditions: dose 10-40 µM
[32] = Effect on SHMT2 gene expression in human MDA-MB-231 cells by Trizol reagent based RNA sequencing analysis relative to control; type: functional
[33] = Effect on STC2 gene expression in human MDA-MB-231 cells by Trizol reagent based RNA sequencing analysis relative to control; type: functional
[34] = Effect on CHAC1 gene expression in human MDA-MB-231 cells by Trizol reagent based RNA sequencing analysis relative to control; type: functional
Homo sapiens = organism: Homo sapiens; assay: Selectivity ratio of IC50 for inhibition of PAK3 (unknown origin) to IC50 for inhibition of PAK1 (unknown origin)
[35] = Effect on GPT2 gene expression in human MDA-MB-231 cells by Trizol reagent based RNA sequencing analysis relative to control; type: functional
[36] = Upregulation of ATF4 gene expression in human MDA-MB-231 cells by Trizol reagent based RNA sequencing analysis relative to control; type: functional
[37] = Effect on CSTA gene expression in human MDA-MB-231 cells by Trizol reagent based RNA sequencing analysis relative to control; type: functional

O=C(Nc1cc(C(F)(F)F)cc(C(F)(F)F)c1)NC1CCN(c2ncnc3[nH]ncc23)CC1
Activity (MDA-MB-231 [1]): Active | fold change (FC) [2]: >2 | Activity (MDA-MB-231 [3]): Active | viability at 20 µM (MDA-MB-231 [4]): 77.3% | Activity (MDA-MB-231 [5]): 14.79% | Activity (MDA-MB-231 [6]): Active | inhibition (MDA-MB-231 [7]): Active | viability at 10 µM (MDA-MB-231 [8]): 88% | fold change (FC) [9]: >2 | fold change (FC) [10]: >2 | Activity (MDA-MB-231 [11]): 6.91% | inhibition [12]: Active | Activity (MDA-MB-231 [13]): Active | Activity (MDA-MB-231 [14]): Dose-dependent effect | Activity (MDA-MB-231 [15]): Active | fold change (FC) [16]: >2 | fold change (FC) [17]: >2 | inhibition [18]: Active | Activity (MDA-MB-231 [19]): 15.2% | Activity (MDA-MB-231 [20]): 7.16% | Activity (MDA-MB-231 [21]): inactive | Activity (MDA-MB-231 [22]): Active | fold change (FC) [23]: >2 | fold change (FC) [24]: >2 | fold change (FC) [25]: >2 | inhibition [26]: Active | fold change (FC) [27]: >2 | fold change (FC) [28]: >2 | Activity (MDA-MB-231 [29]): 1.64% | fold change (FC) [30]: >2 | Activity (MDA-MB-231 [31]): Active | fold change (FC) [32]: >2 | fold change (FC) [33]: >2 | fold change (FC) [34]: >2 | Ratio IC50 (Homo sapiens): 5 | fold change (FC) [35]: >2 | fold change (FC) [36]: >2 | fold change (FC) [37]: >2

Source: ChEMBL document CHEMBL4765282, “Design, synthesis and biological evaluation of 1H-pyrazolo [3,4-d]pyrimidine derivatives as PAK1 inhibitors that trigger apoptosis, ER stress and anti-migration effect in MDA-MB-231 cells” (Eur J Med Chem, 2020)
